Results published in patent US20240390362A1, “METHODS OF TREATING ERYTHROPOIETIC PROTOPORPHYRIA, X-LINKED PROTOPORPHYRIA, OR CONGENITAL ERYTHROPOIETIC PORPHYRIA WITH A SOLID FORM OF BITOPERTIN” (Disc Medicine, Inc., priority 2021, published 2024).

Experiments:
Format in all cases: cell-based
K562 clone-9 cells = test: Cell viability by Vi-CELL XR Complete System in EPP K562 model; settings: 96 hours incubation
Experimental: 900 μL of K562 clone-9 cells at 2×10^5 cells/mL in IMDM media with 10% FBS and 1% PS were plated into a 24-well plate. After 24-hour incubation, 100 μL of compound in DMSO/media was added in different concentration. The final concentration of DMSO was 0.1%. The compound was incubated for 96 hours at 37° C. Cell viability and cell count were measured by Vi-CELL XR Complete System. Finally, the effect of the compound on PPIX level was determined by flow cytometry.

clone 1-9 cells = test: LC/MS/MS of 5-ALA, PPIX and heme levels in the EPP K562 cellular model
[1] = tested on: human cord blood-CD34+ cells; test: CD34+ cells transduced with FECH shRNA lentivirus, differentiated to erythroid cells; flow cytometry of PPIX and surface markers; settings: 100 nM, 9 days differentiation
Experimental: To investigate the effects of GlyT1 inhibitors in human hematopoietic stem cells with an EPP phenotype, lentiviral vectors expressing shRNA of FECH were constructed (Table 4) and transduced at 25 MOI into human cord blood-CD34+ cells purchased from Stemexpress.
Transduced CD34+ cells were differentiated in the presence of Bitopertin (100 nM) or DMSO control into erythroid cells for 9 days in StemSpan SFEM II media supplemented with StemSpan Erythroid Expansion Supplement. The erythroid cell antigen profile was analyzed using cytofluorimetric strategy with the following surface markers: CD71 (PE Mouse Anti-Human CD71, BD Biosciences), glycophoryin A (APC Mouse Anti-Human CD235a, BD Biosciences).

## C[C@H](Oc1ccc(S(C)(=O)=O)cc1C(=O)N1CCN(c2ncc(C(F)(F)F)cc2F)CC1)C(F)(F)F [Bitopertin, [4-(3-fluoro-5-trifluoromethylpyridin-2-yl)piperazin-1-yl][5-methylsulfonyl-2-[((S)-2,2,2-trifluoro-1-methylethyl)oxy]phenyl]methanone]
K562 clone-9 cells
  effect on cell viability: no negative effects
Clone 1-9 cells
  effect on Heme formation: minimal effect
[1]
  effect on erythroid cell surface markers (CD71, glycophorin A): no negative effects
